# Experimental data taken from US20050069513A1, “Amphiphilic compounds for pharmaceutical or cosmetic use” (Physica S.A.R.L., priority 2001, published 2005).
# Test: Formation of ion pair in aqueous phase: solubility / appearance of solutions
# Assay type: physicochemical
# Conditions: acylamino acid dispersed in aqueous phase, milky white appearance
# From the text: Two aqueous solutions are used. The first contains calcitonin. Due to the fact that the calcitonin is hydrophilic, the solution is clear. […] This second solution has a milky white appearance.
# The obtained complex, calcitonin oleyl methyl glycine, is therefore amphiphilic.
# Two aqueous solutions are used. The first contains lidocaine dispersed in the aqueous solution. […] This second solution has a milky white appearance.
# The obtained complex, lidocaine oleyl glycine, is therefore amphiphilic.
# A solution of NaOH in the quantity required for causing precipitation of all of the polymyxin E by deplacement of the sulphate salt is added to a solution of polymyxin E sulphate. Polymyxin E, also known as colistin, thereby goes back to its non-salified, basic structure. The resulting solution, solution B, is thus an aqueous phase with a precipitate of polymyxin E.
# The polymyxin is thus resolubilized in the form of an amphiphilic complex, polymyxin E linoleyl glycine.
row,solubility in water,SMILES
1,only slightly soluble in water,CCCCC/C=C\C/C=C\CCCCCCCCNCC(=O)O [linoleyl glycine]
2,only slightly soluble in water,CCCCCCCC/C=C\CCCCCCCCNCC(=O)O [oleyl glycine]
3,only slightly soluble in water,CCCCCCCC/C=C\CCCCCCCCN(C)CC(=O)O [oleyl methyl glycine]
